Values quoted from earlier work as cited in patent publication US12427127B2 (priority 2018, dated 2025).

## O=NN(CCCl)C(=O)NCCCl [Carmustine, 1,3-bis (2-chloroethyl)-1-nitrosourea]
  Solubility in alcohol and lipids: highly soluble
  Solubility in water: poorly soluble
